Test results reported in patent publication US8835446B2, “Quinazoline derivatives and pharmaceutical compositions thereof” (Nippon Shinyaku Co., Ltd., priority 2005, dated 2014).

Legend:
Guinea Pigs = assay: Test for skin sensitization in guinea pigs (adjuvant and patch test method)
Experimental: The dorsal area of male Hartley guinea pigs (n=5) at the age of 7 weeks was shaved with an electric shaver, and on the following day, primary sensitization was initiated. In the primary sensitization, emulsified complete Freund's adjuvant was intradermally administered at a dose of 0.1 ml only at the initial time, and an adhesive plaster for a patch test spread with 0.1 g of an ointment containing a test compound at 1%, was applied in an occluded state to the site where the adjuvant was intradermally administered. As a base of the ointment, petrolatum containing sorbitan sesquioleate (a surfactant) at 1% was used. At 24 hours after the adhesive plaster for a patch test was applied, the adhesive plaster was removed, and the application site was cleaned by wiping. The procedure of this primary sensitization was performed once daily and continued for a total of 3 days. On 7 days after the initial application of the primary sensitization, secondary sensitization was performed. The site subjected to the primary sensitization was shaved, and an ointment containing sodium lauryl sulfate at 10% was applied thereto in an open state. After 24 hours, the application site was cleaned by wiping, and a lint cloth spread with 0.2 g of the ointment containing a test compound at 1% was applied, thereto in an occluded state. At 48 hours after the lint cloth was applied, the cloth was removed, and the application site was cleaned by wiping. Challenge was performed on 13 days after initiation of the secondary sensitization. The dorsal area and flank area were shaved, and 0.01 g of the ointment containing a test compound at 1% was applied to the challenge site and left for about 24 hours. At about 24 hours and 48 hours after the challenge, observation of the skin surface was performed, and the presence or absence of sensitizing was determined. The determination was carried out by scoring according to the evaluation criteria (see Table 1) of the Draize method (1959).
In this connection, as a positive control, 1-chloro-2,4-dinitrobenzene (DNCB) (sensitization: 1%, challenge: 0.1%) was used. As the test compound, the compounds of Example 58 and Example 248 were used. As a comparative control, 4-[((1S,2R)-2-{[amino(imino)methyl]amino}cyclohexyl)amino]-N-isobutyl-6-methylquinazoline-2-carboxamide dihydrochloride described in Example 383 in Patent document 1 (sensitization: 0.1%, induction: 1%) was used.

Rabbits = settings: female, Kbs: JW, rabbit, in vivo, 24 h
Excerpt: Then, erythema and edema formation at the application site was observed. […] The mean value of the sum of erythema and edema scores was used as a simple primary skin irritation index. […]

Mice [1] = assay: Effect on scratching behavior induced by serotonin application in mice; type: in vivo, mouse; settings: counted for 15 minutes
Experimental: To the cervical and dorsal area of male ICR mice (n=3 to 6) at the age of 4 to 6 weeks, 100 μl of a solution obtained by dissolving serotonin hydrochloride in ethanol at 0.1% (hereinafter referred to as serotonin) was applied, and the number of scratching behavior at the application site with the hind legs occurring immediately after the application was counted for 15 minutes after administration with a counter. Administration of a test compound was carried out by skin application, intravenous administration or oral administration. In the case of skin application, the test compound that was dissolved in ethanol was applied in an amount of 100 μl concurrently with serotonin. In the case of intravenous administration, the test compound that was dissolved in physiological saline was administered at a dose of 10 ml/kg at 5 minutes prior to the serotonin application. In the case of oral administration, the test compound that was dissolved in distilled water was administered at a dose of 10 ml/kg at 20 minutes prior to the serotonin application. The control group of each administration route was given the respective solvent, and the values of scratching behavior were compared between the control group and the test compound group.
The results obtained by skin application of the test compound are shown in Table 3; the results obtained by intravenous administration of the test compound are shown in Table 4; and the results obtained by oral administration of the test compound are shown in Table 5.

Mice [2] = assay: Acute toxicity test in mice; type: in vivo, mouse; settings: intravenous, 10 mg/kg; observed for 2 hours
Excerpt: Male ICR mice at the age of 4 to 6 weeks were used.

[3] = positive control, sensitization: 1%, challenge: 0.1%, n=5
[4] = skin application, concentration 0.1% in ethanol, concurrently with serotonin
[5] = oral administration, dose 30 mg/kg, 20 minutes prior to serotonin

| SMILES | edema (Draize score, cases) (Guinea Pigs; guinea pig, in vivo) | erythema (Draize score, cases) (Guinea Pigs; male, Hartley, guinea pig, in vivo) | Simple primary skin irritation index (Rabbits) | edema (Draize score, cases) (Guinea Pigs; [3]) | erythema (Draize score, cases) (Guinea Pigs; [3]) | Average number of scratching behavior (Mice [1]; [4]) | Change in behavior (Mice [2]) | Average number of scratching behavior (Mice [1]; [5]) |
| --- | --- | --- | --- | --- | --- | --- | --- | --- |
| Cc1ccc2nc(C(=O)NCC(C)C)nc(N[C@H]3CCCC[C@H]3NC(=N)N)c2c1.Cl.Cl [Comparative control A, 4-[((1S,2R)-2-{[amino(imino)methyl]amino}cyclohexyl)amino]-N-isobutyl-6-methylquinazoline-2-carboxamide dihydrochloride] | edema was not observed in all the cases | well-defined erythema (score 2) was observed in 2/5 cases | 1.8 | – | – | – | – | – |
| O=[N+]([O-])c1ccc(Cl)c([N+](=O)[O-])c1 [DNCB, 1-chloro-2,4-dinitrobenzene] | – | – | – | score 1 in 3/5 cases, and score 0 in 2/5 cases | score 3 in 3/5 cases, score 2 in 1/5 cases, and score 1 in 1/5 cases | – | – | – |
| Cc1ccc2nc(C(=O)NCC(C)C)nc(N[C@H]3CCCC[C@H]3NC(N)=NO)c2c1.Cl.Cl [Example 212, 4-[((1S,2R)-2-{[amino(hydroxyimino)methyl]amino}cyclohexyl)amino]-N-isobutyl-6-methylquinazolin-2-carboxamide dihydrochloride] | – | – | 0.8 | – | – | 49.8 | No obvious change | – |
| COCCCNC(=O)c1nc(N[C@H]2CCCC[C@H]2NC(N)=NOC)c2cc(C)ccc2n1.Cl.Cl [Example 239, 4-[((1S,2R)-2-{[amino(methoxyimino)methyl]amino}cyclohexyl)amino]-N-(3-methoxypropyl)-6-methylquinazolin-2-carboxamide dihydrochloride] | – | – | 1.0 | – | – | 55.8 | No obvious change | 88.6 |
| COCCCNC(=O)c1nc(N[C@H]2CCCC[C@H]2NC(N)=NO)c2cc(C)ccc2n1.Cl.Cl [Example 240, 4-[((1S,2R)-2-{[amino(hydroxyimino)methyl]amino}cyclohexyl)amino]-N-(3-methoxypropyl)-6-methylquinazolin-2-carboxamide dihydrochloride] | – | – | 1.0 | – | – | 65.3 | No obvious change | 95.2 |
